According to paper PMC7980221 (Molecular Cell, 2021):
Where two headings read alike, the source gives them in different places.

Columns and labels:
hNav1.2 = hNav1.2 (Homo sapiens, UniProt Q99250); assay: Whole-cell patch-clamp INa inhibition, hNav1.2 in HEK293 cells; format: cell-based
NavMs [1] = target: T1, NavMs (Magnetococcus marinus, UniProt A0L5S6); assay: Mechanism and kinetics of NavMs INa inhibition; format: cell-based
[2] = target: NavMs E227D mutant channel (Magnetococcus marinus, UniProt A0L5S6, E227D); assay: cell-based
[3] = test system: endogenous sodium currents of MDA-MB-231 cells (nNav1.5, Nav1.7); assay: Voltage clamp of endogenous sodium currents in MDA-MB-231 cells; format: cell-based; details: Homo sapiens, MDA-MB-231, read-out: Potency of sodium current inhibition (IC50), MDA-MD-231 cells
[4] = cited from earlier work
[5] = target: NavMs D220E mutant channel (Magnetococcus marinus, UniProt A0L5S6, D220E); assay: cell-based; format: cell-based
NavMs [6] = target: T1, NavMs; assay: cell-based
ER = details: cited from earlier work
[7] = target: NavMs F208L mutant (NavMsL) (Magnetococcus marinus) (UniProt A0L5S6); assay: crystal structure

Sequence of hNav1.2 (Q99250 whole entry): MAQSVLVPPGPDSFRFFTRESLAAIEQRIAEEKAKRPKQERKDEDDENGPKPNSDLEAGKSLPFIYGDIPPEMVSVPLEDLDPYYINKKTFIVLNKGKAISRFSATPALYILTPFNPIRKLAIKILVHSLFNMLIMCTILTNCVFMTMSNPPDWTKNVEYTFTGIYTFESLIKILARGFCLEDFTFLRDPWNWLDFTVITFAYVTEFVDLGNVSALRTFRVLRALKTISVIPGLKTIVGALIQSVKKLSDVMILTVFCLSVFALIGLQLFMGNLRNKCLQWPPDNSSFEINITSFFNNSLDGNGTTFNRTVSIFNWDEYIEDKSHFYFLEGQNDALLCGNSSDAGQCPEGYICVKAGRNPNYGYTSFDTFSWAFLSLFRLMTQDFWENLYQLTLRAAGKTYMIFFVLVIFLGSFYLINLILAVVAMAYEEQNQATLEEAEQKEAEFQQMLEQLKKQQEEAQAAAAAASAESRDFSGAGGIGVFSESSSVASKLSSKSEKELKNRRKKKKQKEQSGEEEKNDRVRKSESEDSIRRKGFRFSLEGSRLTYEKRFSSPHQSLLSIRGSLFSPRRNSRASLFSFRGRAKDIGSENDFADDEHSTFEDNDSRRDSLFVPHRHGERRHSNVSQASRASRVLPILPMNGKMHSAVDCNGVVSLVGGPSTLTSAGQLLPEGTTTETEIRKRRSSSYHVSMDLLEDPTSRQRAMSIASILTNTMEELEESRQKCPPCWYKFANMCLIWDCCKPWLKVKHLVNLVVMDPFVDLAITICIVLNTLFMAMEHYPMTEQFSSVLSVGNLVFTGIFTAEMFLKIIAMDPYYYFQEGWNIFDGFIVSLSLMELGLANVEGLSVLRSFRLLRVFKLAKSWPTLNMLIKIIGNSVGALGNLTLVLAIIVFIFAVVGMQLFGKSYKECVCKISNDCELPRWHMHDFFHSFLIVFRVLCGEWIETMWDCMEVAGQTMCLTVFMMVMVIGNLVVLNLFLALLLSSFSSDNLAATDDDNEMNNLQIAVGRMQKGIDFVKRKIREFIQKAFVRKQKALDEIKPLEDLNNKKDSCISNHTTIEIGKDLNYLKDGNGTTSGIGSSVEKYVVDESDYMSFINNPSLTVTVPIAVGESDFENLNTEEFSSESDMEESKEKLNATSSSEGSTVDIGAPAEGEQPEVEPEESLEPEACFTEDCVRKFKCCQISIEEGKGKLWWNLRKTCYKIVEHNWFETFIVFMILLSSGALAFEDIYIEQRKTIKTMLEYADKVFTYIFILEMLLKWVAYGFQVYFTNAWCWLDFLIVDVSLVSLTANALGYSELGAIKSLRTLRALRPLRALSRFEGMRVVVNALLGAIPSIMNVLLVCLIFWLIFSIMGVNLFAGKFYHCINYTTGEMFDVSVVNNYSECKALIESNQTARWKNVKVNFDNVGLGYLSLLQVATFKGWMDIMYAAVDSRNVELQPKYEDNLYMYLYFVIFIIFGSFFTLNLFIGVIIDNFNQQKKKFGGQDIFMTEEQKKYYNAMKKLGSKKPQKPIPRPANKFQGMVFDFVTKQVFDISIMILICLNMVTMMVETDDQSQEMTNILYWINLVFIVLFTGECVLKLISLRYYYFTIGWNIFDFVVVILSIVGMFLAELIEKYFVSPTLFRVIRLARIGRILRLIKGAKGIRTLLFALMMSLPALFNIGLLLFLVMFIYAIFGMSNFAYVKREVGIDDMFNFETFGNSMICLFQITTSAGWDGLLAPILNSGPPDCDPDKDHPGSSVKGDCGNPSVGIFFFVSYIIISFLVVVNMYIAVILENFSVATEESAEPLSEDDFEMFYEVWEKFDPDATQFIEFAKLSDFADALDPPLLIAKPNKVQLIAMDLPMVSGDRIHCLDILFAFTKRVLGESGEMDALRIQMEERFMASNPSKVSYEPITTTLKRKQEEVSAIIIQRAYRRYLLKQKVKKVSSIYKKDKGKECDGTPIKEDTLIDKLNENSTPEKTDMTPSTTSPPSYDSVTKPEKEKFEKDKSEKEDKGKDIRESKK

For `CC/C(=C(\c1ccc(O)cc1)c1ccc(OCCN(C)C)cc1)c1ccccc1` [4OH-Tam, 4-hydroxytamoxifen], the IC50 (hNav1.2) was 2.1 ± 0.14 µM, the “Average slope of the Hill fit, NaV1.2, HEK cells” value (“Average slope … NaV1.2, HEK cells” for short) (hNav1.2; value in parentheses, error SD) was 0.96 ± 0.1 and the “Delay of rate of recovery from inactivation (τrec) following drug treatment” value (NavMs [1]) was roughly 10 fold. For the same molecule, the “INa inhibition with 7 ms vs 150 ms depolarization trains, times less” value (NavMs [1]) was 3.4 times, the “Kinetics of INa inhibition (τon), times slower than cadmium” value (NavMs [1]) was 16 times and the “Shift of voltage dependence of activation and inactivation” value (NavMs [1]) was “no significant shifts in either parameter”. The IC50 [2] was 2.8 ± 0.16 µM, the “Average slope of the Hill fit, E227D, HEK cells” value ([2]; value in parentheses, error SD) was 1.13 ± 0.1 and the IC50 [3] was 0.89 µM. For the same molecule, the “Potency in vivo as an anti-estrogen relative to tamoxifen” value [4] was 30- to 100 fold, the IC50 [5] was 3.6 ± 0.14 µM and the “Loss in free energy of binding (ΔG°)” value [5] was 6.28 kJ/mol. The “Average slope of the Hill fit, D220E, HEK cells” value ([5]; value in parentheses, error SD) was 1.17 ± 0.1, the IC50 (NavMs [6]) was 0.297 ± 0.075 µM and the “Average slope of the Hill fit, NavMs, HEK cells” value (“Average slope … NavMs, HEK cells” below) (NavMs [6]; value in parentheses, error SD) was 1.14 ± 0.1.
With `CC/C(=C(/c1ccc(O)cc1)c1ccc(OCCN(C)C)cc1)c1ccccc1.Cl` [E-4OH-Tam, E-4-Hydroxytamoxifen hydrochloride] the “Average slope … NaV1.2, HEK cells” value (hNav1.2; value in parentheses, error SD) was 0.94 ± 0.1 and the “Average slope … NavMs, HEK cells” value (NavMs [6]; value in parentheses, error SD) was 1.15 ± 0.1.
With `CC/C(=C(\c1ccc(O)cc1)c1ccc(OCCN(C)C)cc1)c1ccccc1.Cl` [Z-4OH-Tam, Z-4-Hydroxytamoxifen hydrochloride] the “Average slope … NaV1.2, HEK cells” value (hNav1.2; value in parentheses, error SD) was 0.95 ± 0.1 and the “Average slope … NavMs, HEK cells” value (NavMs [6]; value in parentheses, error SD) was 1.05 ± 0.1.
For `CC/C(=C(\c1ccccc1)c1ccc(OCCNC)cc1)c1ccccc1` [NM-Tam, N-desmethyltamoxifen], the “Average slope … NaV1.2, HEK cells” value (hNav1.2) is listed as 3.2 ± 0.12 μM (0.96 ± 0.1), the IC50 (hNav1.2; read-out: Potency of sodium current inhibition (IC50), NaV1.2, HEK cells) is listed as 3.2 µM and the “Affinity for ER, times lower than that of tamoxifen” value (ER) is listed as roughly 100 times. For the same molecule, the “Average slope … NavMs, HEK cells” value (NavMs [6]) was 1.1 ± 0.16 μM (1.11 ± 0.1) and the IC50 (NavMs [6]; read-out: Potency of sodium current inhibition (IC50), NavMs, HEK cells) was 1.1 µM.
With `CC/C(=C(\c1ccccc1)c1ccc(OCCN(C)C)cc1)c1ccccc1` [Tamoxifen] the “Average slope … NaV1.2, HEK cells” value (hNav1.2) was 2.4 ± 0.11 μM (1.05 ± 0.1) and the IC50 (hNav1.2) was 2.4 µM.
In the case of `CC/C(=C(\c1ccc(O)cc1)c1ccc(OCCNC)cc1)c1ccccc1` [Endoxifen], the IC50 (hNav1.2) is reported as 3.1 ± 0.13 µM, the “Average slope … NaV1.2, HEK cells” value (hNav1.2; value in parentheses, error SD) is reported as 0.97 ± 0.1 and the IC50 (NavMs [6]) is reported as 0.328 ± 0.089 µM. The “Average slope … NavMs, HEK cells” value (NavMs [6]; value in parentheses, error SD) was 1.09 ± 0.1.
Molecule “NavMs F208L mutant (NavMsL) (from UniProt A0L5S6 1-274) (natural protein)” has a stoichiometry N [7] of 4.
